Test results as given in patent US11787825B2 (priority 2021, dated 2023).
Converted amounts (≈) assume the structure as drawn. Like-named read-outs stand apart in the source and are kept apart here.

Experiments:
physchem = conditions: 25 °C, thermodynamic from solid
[1] = fasted state simulated intestinal fluid (FaSSIF), fassif
[2] = fed state simulated intestinal fluid (FeSSIF), fessif
[3] = 0.1N HCL, 1.0% DMSO, 24-hour incubation at ambient temperature, maximum theoretical compound concentration 100 μM
[4] = 1×PBS buffer (pH 7.4), 1.0% DMSO, 24-hour incubation at ambient temperature, maximum theoretical compound concentration 100 μM

SMILES | solubility (physchem; fassif) | solubility (physchem; fessif) | pH 2 solubility (pH 2) | pH 7 solubility (pH 7.4) | solubility (physchem; [1]) | solubility (physchem; [2]) | pH 2 solubility [3] | pH 7 solubility [4] | pH 7 solubility
CC(C)(C#Cc1ccc(-c2ccc(Cl)c3c(N(C(=O)Cc4ccc(OP(=O)(O)O)cc4)S(C)(=O)=O)nn(CC(F)(F)F)c23)c([C@H](Cc2cc(F)cc(F)c2)NC(=O)Cn2nc(C(F)(F)F)c3c2C(F)(F)[C@@H]2C[C@H]32)n1)S(C)(=O)=O [Compound 51, 4-(2-(N-(4-chloro-7-(2-((S)-1-(2-((3bS,4aR)-5,5-difluoro (trifluoromethyl)-3b,4,4a,5-tetrahydro-1H-cyclopropa[3,4]cyclopenta[1,2-c]pyrazolyl)acetamido)-2-(3,5-difluorophenyl)ethyl)-6-(3-methyl-3-(methylsulfonyl)but-1-ynyl)pyridin-3-yl)-1-(2,2,2-trifluoroethyl)-1H-indazol-3-yl)methylsulfonamido)oxoethyl)phenyl dihydrogen phosphate] | 1750 µg/mL | 1450 µg/mL | 1/100 μM | 1/100 μM |  |  |  |  | 
CC(C)(C#Cc1ccc(-c2ccc(Cl)c3c(N(C(=O)CCCOP(=O)(O)O)S(C)(=O)=O)nn(CC(F)(F)F)c23)c([C@H](Cc2cc(F)cc(F)c2)NC(=O)Cn2nc(C(F)(F)F)c3c2C(F)(F)[C@@H]2C[C@H]32)n1)S(C)(=O)=O [Compound 27, 4-(N-(4-chloro-7-(2-((S)-1-(2-((3bS,4aR)-5,5-difluoro-3-(trifluoromethyl)-3b,4,4a,5-tetrahydro-1H-cyclopropa[3,4]cyclopenta[1,2-c]pyrazol-1-yl)acetamido)-2-(3,5-difluorophenyl)ethyl)-6-(3-methyl-3-(methylsulfonyl)but-1-yn-1-yl)pyridin-3-yl)-1-(2,2,2-trifluoroethyl)-1H-indazol-3-yl)methylsulfonamido)-4-oxobutyl dihydrogen phosphate] |  |  |  |  | 190 µg/mL | 450 µg/mL | 1 μM | 26 μM | 
C[C@H](NC(=O)OCOP(=O)(O)O)C(=O)N(c1nn(CC(F)(F)F)c2c(-c3ccc(C#CC(C)(C)S(C)(=O)=O)nc3[C@H](Cc3cc(F)cc(F)c3)NC(=O)Cn3nc(C(F)(F)F)c4c3C(F)(F)[C@@H]3C[C@H]43)ccc(Cl)c12)S(C)(=O)=O [Compound 36, (phosphonooxy)methyl ((S)-1-(N-(4-chloro-7-(2-((S)-1-(2-((3bS,4aR)-5,5-difluoro-3-(trifluoromethyl)-3b,4,4a,5-tetrahydrocyclopropa[3,4]cyclopenta[1,2-c]pyrazol-1-yl)acetamido)-2-(3,5-difluorophenyl)ethyl)-6-(3-methyl-3-(methylsulfonyl)but-1-yn-1-yl)pyridin-3-yl)-1-(2,2,2-trifluoroethyl)-1H-indazolyl)methylsulfonamido)-1-oxopropan-2-yl)carbamate] | 661 µg/mL (≈ 554 µM) |  |  |  |  |  | 3 μM | 100 μM | 
Cc1cc(CC(=O)NCP(=O)(O)O)c(C(C)(C)CC(=O)N(c2nn(CC(F)(F)F)c3c(-c4ccc(C#CC(C)(C)S(C)(=O)=O)nc4[C@H](Cc4cc(F)cc(F)c4)NC(=O)Cn4nc(C(F)(F)F)c5c4C(F)(F)[C@@H]4C[C@H]54)ccc(Cl)c23)S(C)(=O)=O)c(OP(=O)(O)O)c1 [Compound 61, ((2-(2-(4-(N-(4-chloro-7-(2-((S)-1-(2-((3bS,4aR)-5,5-difluoro-3-(trifluoromethyl)-3b,4,4a,5-tetrahydro-1H-cyclopropa[3,4]cyclopenta[1,2-c]pyrazol-1-yl)acetamido)-2-(3,5-difluorophenyl)ethyl)-6-(3-methyl-3-(methylsulfonyl)but-1-yn-1-yl)pyridin-3-yl)-1-(2,2,2-trifluoroethyl)-1H-indazol-3-yl)methylsulfonamido)-2-methyl-4-oxobutan-2-yl)-5-methyl-3-(phosphonooxy)phenyl)acetamido)methyl)phosphonic acid] | > 10000 µg/mL |  | 2/70 μM | 2/70 μM |  |  |  |  | 
CC(C)(C#Cc1ccc(-c2ccc(Cl)c3c(NS(C)(=O)=O)nn(CC(F)(F)F)c23)c([C@H](Cc2cc(F)cc(F)c2)NC(=O)Cn2nc(C(F)(F)F)c3c2C(F)(F)[C@@H]2C[C@H]32)n1)S(C)(=O)=O [Intermediate 5, N—((S)-1-(3-(4-chloro-3-(methylsulfonamido)-1-(2,2,2-trifluoroethyl)-1H-indazol-7-yl)-6-(3-methyl-3-(methylsulfonyl)but-1-yn-1-yl)pyridin-2-yl)-2-(3,5-difluorophenyl)ethyl)-2-((3bS,4aR)-5,5-difluoro-3-(trifluoromethyl)-3b,4,4a,5-tetrahydro-1H-cyclopropa[3,4]cyclopenta[1,2-c]pyrazol-1-yl)acetamide, reference compound] |  |  |  |  | 4 µg/mL (≈ 4.13 µM) | 4.2 µg/mL (≈ 4.34 µM) | 0.11 μM | 0.32 μM | 
CC(C)(C#Cc1ccc(-c2ccc(Cl)c3c(N(C(=O)[C@@H](N)CCCNC(=N)N)S(C)(=O)=O)nn(CC(F)(F)F)c23)c([C@H](Cc2cc(F)cc(F)c2)NC(=O)Cn2nc(C(F)(F)F)c3c2C(F)(F)[C@@H]2C[C@H]32)n1)S(C)(=O)=O [Compound 22, 2-amino-N-(4-chloro-7-(2-((S)-1-(2-((3bS,4aR)-5,5-difluoro-3-(trifluoromethyl)-3b,4,4a,5-tetrahydro-1H-cyclopropa[3,4]cyclopenta[1,2-c]pyrazolyl)acetamido)-2-(3,5-difluorophenyl)ethyl)-6-(3-methyl-3-(methylsulfonyl)but-1-ynyl)pyridin-3-yl)-1-(2,2,2-trifluoroethyl)-1H-indazol-3-yl)-5-guanidino-N-(methylsulfonyl)pentanamide] |  |  |  |  |  | 0.2 µg/mL (≈ 0.178 µM) | 100 μM | 27 μM | 
Cc1cc(C(=O)NCP(=O)(O)O)cc(OP(=O)(O)O)c1C(C)(C)CC(=O)N(c1nn(CC(F)(F)F)c2c(-c3ccc(C#CC(C)(C)S(C)(=O)=O)nc3[C@H](Cc3cc(F)cc(F)c3)NC(=O)Cn3nc(C(F)(F)F)c4c3C(F)(F)[C@@H]3C[C@H]43)ccc(Cl)c12)S(C)(=O)=O [Compound 60, ((4-(4-(N-(4-chloro-7-(2-((S)-1-(2-((3bS,4aR)-5,5-difluoro-3-(trifluoromethyl)-3b,4,4a,5-tetrahydro-1H-cyclopropa[3,4]cyclopenta[1,2-c]pyrazol-1-yl)acetamido)-2-(3,5-difluorophenyl)ethyl)-6-(3-methyl-3-(methylsulfonyl)but-1-yn-1-yl)pyridin-3-yl)-1-(2,2,2-trifluoroethyl)-1H-indazol-3-yl)methylsulfonamido)-2-methyl-4-oxobutan-2-yl)-3-methyl-5-(phosphonooxy)benzamido)methyl)phosphonic acid] | > 10000 µg/mL |  | 1/64 μM | 1/64 μM |  |  |  |  | 
CN(C)CC(=O)N(c1nn(CC(F)(F)F)c2c(-c3ccc(C#CC(C)(C)S(C)(=O)=O)nc3[C@H](Cc3cc(F)cc(F)c3)NC(=O)Cn3nc(C(F)(F)F)c4c3C(F)(F)[C@@H]3C[C@H]43)ccc(Cl)c12)S(C)(=O)=O [Compound 4, N-(4-chloro-7-(2-((S)-1-(2-((3bS,4aR)-5,5-difluoro-3-(trifluoromethyl)-3b,4,4a,5-tetrahydro-1H-cyclopropa[3,4]cyclopenta[1,2-c]pyrazol-1-yl)acetamido)-2-(3,5-difluorophenyl)ethyl)-6-(3-methyl-3-(methylsulfonyl)but-1-yn-1-yl)pyridin-3-yl)-1-(2,2,2-trifluoroethyl)-1H-indazol-3-yl)-2-(dimethylamino)-N-(methylsulfonyl)acetamide] |  |  |  |  |  | 6 µg/mL (≈ 5.7 µM) | 42 μM | 1 μM | 
CC(C)(C#Cc1ccc(-c2ccc(Cl)c3c(N(C(=O)/C=C/C(=O)N[C@@H](CC(=O)O)C(=O)O)S(C)(=O)=O)nn(CC(F)(F)F)c23)c([C@H](Cc2cc(F)cc(F)c2)NC(=O)Cn2nc(C(F)(F)F)c3c2C(F)(F)[C@@H]2C[C@H]32)n1)S(C)(=O)=O [Compound 2, ((E)-4-(N-(4-chloro-7-(2-((S)-1-(2-((3bS,4aR)-5,5-difluoro-3-(trifluoromethyl)-3b,4,4a,5-tetrahydro-1H-cyclopropa[3,4]cyclopenta[1,2-c]pyrazolyl)acetamido)-2-(3,5-difluorophenyl)ethyl)-6-(3-methyl-3-(methylsulfonyl)but-1-ynyl)pyridin-3-yl)-1-(2,2,2-trifluoroethyl)-1H-indazol-3-yl)methylsulfonamido)-4-oxobutenoyl)-L-aspartic acid] |  |  | 1/95 μM |  | 810 µg/mL (≈ 686 µM) | 655 µg/mL (≈ 554 µM) |  |  | 1/95 μM
CN(C)CCCC[C@@H](C(=O)N(c1nn(CC(F)(F)F)c2c(-c3ccc(C#CC(C)(C)S(C)(=O)=O)nc3[C@H](Cc3cc(F)cc(F)c3)NC(=O)Cn3nc(C(F)(F)F)c4c3C(F)(F)[C@@H]3C[C@H]43)ccc(Cl)c12)S(C)(=O)=O)N(C)C [Compound 6, (S)—N-(4-chloro-7-(2-((S)-1-(2-((3bS,4aR)-5,5-difluoro-3-(trifluoromethyl)-3b,4,4a,5-tetrahydro-1H-cyclopropa[3,4]cyclopenta[1,2-c]pyrazol-1-yl)acetamido)-2-(3,5-difluorophenyl)ethyl)-6-(3-methyl-3-(methylsulfonyl)but-1-yn-1-yl)pyridin-3-yl)-1-(2,2,2-trifluoroethyl)-1H-indazol-3-yl)-2,6-bis(dimethylamino)-N-(methylsulfonyl)hexanamide] |  |  |  |  | 21 µg/mL (≈ 18.2 µM) | 1 µg/mL (≈ 0.868 µM) | 100 μM | 9 μM | 
